For orientation: EC50 means the concentration that produces a half-maximal response. Low values mean higher potency in that assay, high ones lower potency in that assay. A word on the Emax: it is the greatest response seen or fitted, relative to the assay's reference.

Consider six compounds from paper PMC12916490 (Molecular Psychiatry, 2025).

Assay [1] addresses T1, h5-HT2A (Homo sapiens, UniProt P28223). As to the kind of experiment: β-arrestin 2 recruitment (NanoBiT), h5-HT2A. The format is cell-based. Also noted: expressed in transfected cells. As to conditions: for Emax: read-out: β-arrestin 2 recruitment Emax h5-HT2A (95% CI). The method, then: Activation of h5-HT2A, h5-HT2B, and h5-HT2C receptors was examined by measuring the accumulation of inositol monophosphate (IP1) as a marker for Gαq-mediated signaling. For h5-HT2A, additional assays measured β-arrestin 2 recruitment and arachidonic acid release, the latter serving as a marker of Gαi/o,12/13 activation. The methodology is described in detail in the Supplementary information.
The IC50 values from the radioligand binding assays were determined by nonlinear regression, using three independent concentration-response curves fitted to a one-site model. The Cheng-Prusoff equation was used to calculate Kᵢ values for the competing ligands. EC50 values were determined by applying nonlinear regression to concentration-response curves. Bias factors (β) were calculated based on the relative intrinsic activity approach. More detailed information can be found in the Supplementary information. Mean values for total number of HTR, change in body temperature from pre to post session (Δ°C), and total distance traveled (cm) for each drug dose were compared (p < 0.05) via Welch’s ANOVA with Dunnett’s T3 post test, comparing all doses to respective vehicle controls (0 mg/kg). Welch’s ANOVA with Dunnett’s T3 post test was also used to compare drug concentrations, but the data were compared to DOM in this case. Dose–response relationships for HTR and locomotor activities were plotted using bell-shaped curve fits, while temperature change data were plotted using four-parameter non-linear regression curve fits. The ascending phase of the HTR curve for each drug was used to determine ED50 potency values from four parameter non-linear regression fits. For combined DOM and DOAM administration, the plasma, brain tissue, and brain dialysate drug concentrations were compared using paired t-tests (p < 0.05). […]
the β-arrestin 2 molecule in the NanoBiT system) were seeded at a density of 50,000 cells per well in poly - D-lysine-coated 96-well plates in medium containing 10% dialyzed FBS. The plate was then incubated at […]
The following day, the cells were washed twice with 150 µL HBSS, and 100 µL HBSS was subsequently added to each well. Thereafter, 25 µL of substrate (1 :20 diluted in buffer) was added, and […]
agonist solutions was added, and the signal was monitored for 2 h. Drug dilutions in HBSS were made from 10 mM stock solutions in DMSO , yielding concentration ranges from 10 µM to 10 pM. All concentrations were run in duplicate and included the appropriate solvent controls. Efficacy was normalized to 5 -HT […]
3.2.3 Arachidonic acid release
Arachidonic acid release was assessed as a marker for Gαi/o,12/13 mediated signaling.
NIH/3T3 cells stably expressing the 5 -HT2A receptor were seeded at a density of 75,000 cells per well in a poly-D-lysine-coated 48-well plate. The following day, the cells were labeled with 300 μL [ 3H]arachidonic […]
Thereafter, the cells were washed 3 times for
(10 mM) of test substances were prepared in DMSO. The final dilution series of test substances dissolved […]
Thereafter, the plate was put on ice, and 400 μL incubation supernatant per well was transferred int o scintillation vials containing scintillation fluid (Ultimagold, Perkin Elmer, Schwerzenbach, Switzerland). The remaining supernatant was removed, and the cells were lysed with 1% sodium dodecyl sulfate lysis buffer. The obtained cell lysate was transferred into scintillation vials containing scintillation fluid. Radioactivity was measured on a liquid scintillation counter (Packard 1900 TR Tri-Carb Liquid Scintillation Counter; Packard Instrument Company). Efficacy was normalized to 5-HT activity.
3.2.4 Calculation of bias factors […]
using 5-HT as the reference agonist.
RApathway = EC50, i = EC50, ref×Emax,i […]
(Arrestin recruitment assays detect the binding of arrestin to an activated receptor.)

The target in assay [2] is T1, h5-HT2A. Kind of assay: IP1 formation (Gαq-mediated signaling), h5-HT2A. The format is cell-based. Set-up: expressed in transfected cells; host or cells: HEK 293 cells (membrane preparation). To be noted: for Emax: read-out: IP1 formation Emax h5-HT2A (95% CI).

T1 sequence (P28223 whole entry, looked up): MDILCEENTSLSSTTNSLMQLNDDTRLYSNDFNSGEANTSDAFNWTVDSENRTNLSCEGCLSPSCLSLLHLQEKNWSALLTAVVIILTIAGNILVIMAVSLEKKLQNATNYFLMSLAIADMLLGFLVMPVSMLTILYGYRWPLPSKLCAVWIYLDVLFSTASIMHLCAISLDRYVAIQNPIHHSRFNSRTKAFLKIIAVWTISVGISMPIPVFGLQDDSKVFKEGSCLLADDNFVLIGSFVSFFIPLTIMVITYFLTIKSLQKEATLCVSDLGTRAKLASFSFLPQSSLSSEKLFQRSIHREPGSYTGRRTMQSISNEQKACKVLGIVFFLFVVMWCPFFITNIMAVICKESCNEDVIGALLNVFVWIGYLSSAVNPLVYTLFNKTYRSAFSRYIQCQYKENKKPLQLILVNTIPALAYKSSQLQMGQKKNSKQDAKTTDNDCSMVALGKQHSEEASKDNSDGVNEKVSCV

In the case of `CCCCc1cc(OC)c(CC(C)N)cc1OC` (stereo not drawn) [DOBU, 4-butyl-2,5-dimethoxyamphetamine], at h5-HT2A [1], the “Agonist type in the β-arrestin 2 recruitment assay at the 5-HT2A receptor” value is “full agonists”, the response was half-maximal at 24 nM (EC50) and the maximum response (Emax) stood at 96%. For the same compound, at h5-HT2A [2], the “Agonist type for Gαq signaling at the 5-HT2A receptor” value (“Agonist type for Gαq signaling” below) is given as “high efficacy partial agonists”, the EC50 was 2.8 nM and the maximal effect (Emax) amounted to 90%.
As for `COc1ccc(OC)c(CC(C)N)c1.Cl` (stereo not drawn) [2,5-DMA, 2,5-Dimethoxyamphetamine hydrochloride], the maximum response (Emax) on h5-HT2A [1] worked out at 83%; at h5-HT2A [2] it was 99%.
On to `CCCCCc1cc(OC)c(CC(C)N)cc1OC` (stereo not drawn) [DOAM, 4-amyl-2,5-dimethoxyamphetamine], for which, on h5-HT2A [1], the half-maximal effective concentration (EC50) turned out to be 56 nM and the Emax came out at 85%. In addition, at h5-HT2A [2], the “Agonist type for Gαq signaling” value was “high efficacy partial agonists”, the concentration giving a half-maximal response (EC50) was determined as 8.1 nM and the maximal effect (Emax) was found to be 83%.
In the case of `CCc1cc(OC)c(CC(C)N)cc1OC` (stereo not drawn) [DOET, 4-ethyl-2,5-dimethoxyamphetamine], on h5-HT2A [1], the “Agonist type in the β-arrestin 2 recruitment assay at the 5-HT2A receptor” value is recorded as “full agonists”, it took 12 nM to reach a half-maximal effect (EC50) and the Emax came out at 99%. Further, on h5-HT2A [2], the “Agonist type for Gαq signaling” value is reported as “high efficacy partial agonists”, a half-maximal response (EC50) required 12 nM and the Emax stood at 93%.
For the compound `CCCc1cc(OC)c(CC(C)N)cc1OC.Cl` (stereo not drawn) [DOPR, 4-propyl-2,5-dimethoxyamphetamine hydrochloride], on h5-HT2A [1], the “Agonist type in the β-arrestin 2 recruitment assay at the 5-HT2A receptor” value is listed as “full agonists”, a half-maximal response (EC50) required 9.3 nM and the maximum response (Emax) was 105%. At h5-HT2A [2], a half-maximal response (EC50) required 1.9 nM and the maximum response (Emax) was found to be 96%.
As to `COc1cc(CC(C)N)c(OC)cc1C` (stereo not drawn) [DOM, 4-methyl-2,5-dimethoxyamphetamine], at h5-HT2A [1], the “Agonist type in the β-arrestin 2 recruitment assay at the 5-HT2A receptor” value is given as “full agonists”, the half-maximal effective concentration (EC50) was 55 nM and the maximal response (Emax) turned out to be 97%. For the same compound, on h5-HT2A [2], the “Agonist type for Gαq signaling” value is recorded as “high efficacy partial agonists”, a half-maximal effect (EC50) was put at 21 nM and the maximal effect (Emax) was 92%.
